{"source": "patent US20230382916A1", "about": "“HETEROARYL HETEROCYCLIC COMPOUNDS AND USES THEREOF” (HUTCHISON MEDIPHARMA LIMITED, priority 2020, published 2023)", "key": {"[1]": {"test": "Stability test in liver microsomes (mouse)", "format": "in vitro ADME", "conditions": "mouse liver microsomes 0.5 mg/mL, 1 μM compound", "description": "Both male CD-1 mouse pooled liver microsomes and male SD rat pooled liver microsomes were purchased from BioreclamationIVT Corporation, USA.\nThe test compound stock solution was diluted with an organic solvent (usually a mixture of acetonitrile, methanol and water with various ratios, depending on the solubility of the compound, if necessary, 1 N hydrochloric acid or 1 N sodium hydroxide would be added to facilitate solubilization) to the 0.1 mM (the final concentration of the compound in the reaction system was 1 μM) and the concentration percentage of the organic solvents in the incubation system no more than 1% (wherein the percentage of DMSO was required to be no more than 0.1%). An appropriate amount of 100 mM NADP, 500 mM G-6-P and 100 Unit/mL G-6-PDH were mixed and diluted with ultrapure water (the final system contains 1 mM NADP, 5 mM G-6-P and 1 Unit/mL G-6-PDH), pre-incubated in a 37° C. water bath for 10 minutes and then placed on ice for use as a NADPH regeneration solution. 20 mg/mL liver microsomes solution and 200 mM phosphate buffer were mixed, and diluted with ultrapure water to give a liver microsomes solution containing 2.5 mg/mL liver microsomes (the final concentration of the reaction system is 0.5 mg/mL) and 50 mM phosphate buffer. The diluted liver microsomes solution was mixed with 0.1 mM compound solution, a mixture of 100 mM EDTA, 300 mM MgCl2 solution, 200 mM phosphate buffer (the final system was 3 mM MgCl2, 1 mM EDTA and 50 mM phosphate buffer) and water in an appropriate volume was added. Finally, the NADPH regeneration solution was added, then the reaction solution was placed in a 37° C. water bath to start the reaction (the reaction time was 30 minutes), and the reaction was stopped by adding the ice-cold acetonitrile reaction stopping solution containing the internal standard. The 0-minute sample was not incubated in a 37° C. water bath, and its difference from the 30-minute sample further lies in that the ice-cold acetonitrile reaction stopping solution containing the internal standard was added first, and then the NADPH regeneration solution was added. The sample added with the reaction stopping internal standard solution was vortexed and mixed well, and then centrifuged at 4400 rpm for 10 minutes. The supernatant was taken and diluted ten times with 50% methanol for LC-MS/MS analysis.\nLC-MS/MS was used to determine the concentration of the compound in the sample. The percentage of the remaining compound after 30 minutes of incubation comparing with that in the 0-minute sample was calculated using the peak area ratio of the compound to the internal standard as an indicator, to evaluate the metabolic stability of the compound."}, "[2]": {"test_system": "rat arthritis model induced by type II collagen", "test": "Rat arthritis model induced by type II collagen (CIA), paw volume", "format": "in vivo", "conditions": "for inhibition ratio of area under the curve (IRAUC) of paw swelling: Day 13 to Day 19", "description": "An appropriate amount of bovine type II collagen (CII, Chondrex (Redmond, WA, USA), Cat #20021) was weighed and dissolved in 0.1 mole of acetic acid (SPGC Sinopharm Chemical Reagent Co., Ltd (Shanghai, P.R. China), Cat #: 10000218.), which was formulated into a solution with a concentration of 6 mg/mL, stirred at 4° C. overnight, and added with an equal volume of Freund's incomplete adjuvant (Sigma-Aldrich. (St. Louis, MO, USA), Cat #: SLBW0366.), fully emulsified to prepare an emulsion with a CII concentration of 3 mg/mL.\nFemale Lewis rats were purchased from Beijing Vital River Laboratory Animal Technology Co., Ltd. (certificate number 20200928Aazz0619000579, initial body weight of 110-130 grams), and 6 rats were randomly selected as a normal group; and all of the remaining rats were immunized. In the first immunization on day 0, the rats except those in the normal group were anesthetized with isoflurane (Hebei Yipin Pharmaceutical Co., Ltd., Lot: C002170601.), and then disinfected with 75% alcohol, and 0.2 mL of emulsion was injected intradermally at the base of the tail thereof. A second challenge was carried out on day 7, and 0.2 mL of emulsion was intradermally injected using the same method. Once the animals developed symptoms on day 10, the incidence conditions thereof were closely monitored.\nAfter grouping, the normal group was not administered, and the rats in the other groups were administered with the control vehicle, 0.25 mg/kg and 4 mg/kg of the reference GDC-0853, and each dose of compound 1 orally once a day until the end of the experiment.\nThe paw volume was measured on day 10 after immunization, and the left and right hind paw volumes (V) were measured every day after the paw volume increase was detected.\nThe arthrosis paw volumes of the left and right hind limbs of each animal were measured, and the average paw volume (APV) was calculated according to the following formula:\nAverage paw volume APV=(Vleft+Vright)/2\nThe average arthrosis paw volume of each animal before administration was used as the baseline (or considered […] of inflammation). The averaged paw swelling (APS) of each animal is calculated according to the following formula, wherein, APVd1 is the average paw volume of the animal administered on day 1, and APVdt is the average paw volume of the animal administered on day t:\nThe averaged paw swelling APSdt=(APVdt−APVd1)\nThe area under the curve (AUC) of the average paw volume swelling is the area under the curve of the arthrosis score swelling calculated by the trapezoid method, and the calculation formula is:\nAUCAPS=½×(APSd1+APSd2)×(d2−d1)+½×(APSd2+APSd3)×(d3−d2)+ . . . +½×(APSdn+APSd(n-1))×(dn−dn-1).\nInhibition ratio IRAUC%=(Mean AUCAPS in the model group−AUCAPS in the drug-treated group)/(Mean AUCAPS in the model group−Mean AUCAPS in the normal group)×100%."}}, "data": [{"smiles": "C[C@H]1CN(C2COC2)C[C@H](C)N1c1ccc(Nc2cc(-c3ccnc(-n4ccn5c6c(cc5c4=O)CC(C)(C)C6)c3CO)cn(C)c2=O)nc1", "note": "[Compound 1, 2-(5-((5-((2S,6S)-2,6-dimethyl-4-(oxetan-3-yl)piperazin-1-yl)pyridin-2-yl)amino)-3′-(hydroxymethyl)-1-methyl-6-oxo-1,6-dihydro-[3,4′-bipyridin]-2′-yl)-7,7-dimethyl-7,8-dihydro-2H-cyclopenta[4,5]pyrrolo[1,2-a]pyrazin-1(6H)-one]", "values": [{"measurement": "MLM, percentage of the remaining compound after 30 minutes of incubation", "setting": "[1]", "result": 91.6, "unit": "%"}, {"measurement": "inhibition ratio of area under the curve (IRAUC) of paw swelling", "setting": "[2]; 0.06 mg/kg oral QD", "result": 76.2, "unit": "%"}, {"measurement": "effect on paw volume compared with vehicle control group", "setting": "[2]; 0.25 mg/kg oral QD", "result": "significantly increase the continuous improvement of paw volume swelling"}, {"measurement": "inhibition ratio of area under the curve (IRAUC) of paw swelling", "setting": "[2]; 0.25 mg/kg oral QD", "result": 83.1, "unit": "%"}, {"measurement": "effect on paw volume compared with vehicle control group", "setting": "[2]; 4 mg/kg oral QD", "result": "significantly increase the continuous improvement of paw volume swelling"}, {"measurement": "inhibition ratio of area under the curve (IRAUC) of paw swelling", "setting": "[2]; 4 mg/kg oral QD", "result": 200.2, "unit": "%"}, {"measurement": "minimum effective dose", "setting": "[2]; oral QD, paw swelling", "result": 0.06, "unit": "mg/kg/day"}]}]}
